Data as given in ChEMBL document CHEMBL5346927, “Discovery of a novel 1H-pyrazole- [3,4-b] pyridine-based lysine demethylase 5B inhibitor with potential anti-prostate cancer activity that perturbs the phosphoinositide 3-kinase/AKT pathway” (Eur J Med Chem, 2023).

Test system: PC-3
Assay: Inhibition of PI3K/AKT pathway in human PC-3 cells assessed as decrease in AKT phosphorylation at Ser473 residue at 20 uM by Western blot analysis relative to control
Format: cell-based

SMILES: CN1CCN(CCNC(=O)c2cc(-c3ccc4ccccc4c3)nc3c2cnn3-c2ccccc2)CC1
- inhibition: 40%
